Experimental data reported in the NIST ThermoML archive (doi:10.1016/j.jct.2005.02.003).
± gives the expanded uncertainty stated by the source.

Assay: molar heat capacity at constant pressure
Settings: 101.33 kPa

CC(C)COC(C)(C)C [isobutyl tert-butyl ether]
Settings	molar heat capacity at constant pressure [J/K/mol]
5 K, Crystal	0.38 ± 0.055
7.68 K, Crystal	1.339 ± 0.086
8.33 K, Crystal	1.743 ± 0.099
8.97 K, Crystal	2.217 ± 0.11
9.61 K, Crystal	2.779 ± 0.13
10 K, Crystal	3.042 ± 0.14
10.26 K, Crystal	3.32 ± 0.15
11.02 K, Crystal	4.139 ± 0.17
11.92 K, Crystal	5.166 ± 0.2
12.83 K, Crystal	6.289 ± 0.23
13.74 K, Crystal	7.45 ± 0.26
14.65 K, Crystal	8.714 ± 0.29
15 K, Crystal	9.221 ± 0.3
15.57 K, Crystal	10.02 ± 0.32
16.48 K, Crystal	11.42 ± 0.35
17.41 K, Crystal	12.82 ± 0.37
18.34 K, Crystal	14.27 ± 0.4
19.27 K, Crystal	15.69 ± 0.42
20 K, Crystal	16.85 ± 0.45
20.2 K, Crystal	17.2 ± 0.45
21.22 K, Crystal	18.77 ± 0.47
22.29 K, Crystal	20.45 ± 0.49
23.35 K, Crystal	22.1 ± 0.52
24.42 K, Crystal	23.8 ± 0.53
25 K, Crystal	24.7 ± 0.53
25.49 K, Crystal	25.53 ± 0.54
26.55 K, Crystal	27.09 ± 0.55
27.63 K, Crystal	28.56 ± 0.55
28.7 K, Crystal	30.12 ± 0.56
29.77 K, Crystal	31.74 ± 0.56
30 K, Crystal	32.07 ± 0.52
30.84 K, Crystal	33.37 ± 0.53
31.91 K, Crystal	34.71 ± 0.55
32.98 K, Crystal	36.13 ± 0.56
34.05 K, Crystal	37.59 ± 0.57
35 K, Crystal	38.76 ± 0.59
35.12 K, Crystal	38.89 ± 0.59
36.19 K, Crystal	40.25 ± 0.61
37.26 K, Crystal	41.63 ± 0.61
38.34 K, Crystal	42.83 ± 0.63
39.41 K, Crystal	44.07 ± 0.64
40 K, Crystal	44.8 ± 0.65
40.47 K, Crystal	45.31 ± 0.66
41.54 K, Crystal	46.53 ± 0.67
42.6 K, Crystal	47.83 ± 0.68
43.66 K, Crystal	48.91 ± 0.69
44.72 K, Crystal	50.25 ± 0.71
45 K, Crystal	50.39 ± 0.71
45.78 K, Crystal	51.18 ± 0.71
46.84 K, Crystal	52.39 ± 0.72
47.9 K, Crystal	53.45 ± 0.73
48.96 K, Crystal	54.66 ± 0.75
50 K, Crystal	55.71 ± 0.76
50.01 K, Crystal	55.57 ± 0.76
51.07 K, Crystal	56.57 ± 0.77
52.12 K, Crystal	57.81 ± 0.78
53.17 K, Crystal	59.02 ± 0.79
54.22 K, Crystal	60.27 ± 0.81
55 K, Crystal	60.91 ± 0.81
55.27 K, Crystal	61.56 ± 0.81
56.31 K, Crystal	63.16 ± 0.83
57.36 K, Crystal	64.51 ± 0.85
58.41 K, Crystal	64.56 ± 0.85
59.46 K, Crystal	65.29 ± 0.86
60 K, Crystal	66.03 ± 0.86
63.63 K, Crystal	70.22 ± 0.91
64.68 K, Crystal	70.75 ± 0.91
65 K, Crystal	71.08 ± 0.91
65.72 K, Crystal	72.16 ± 0.92
66.76 K, Crystal	73.11 ± 0.93
67.8 K, Crystal	74.04 ± 0.94
68.84 K, Crystal	74.44 ± 0.95
69.88 K, Crystal	75.46 ± 0.96
70 K, Crystal	76.09 ± 0.96
70.92 K, Crystal	76.66 ± 0.96
71.95 K, Crystal	77.53 ± 0.97
74.01 K, Crystal	79.84 ± 1
75 K, Crystal	81.05 ± 1
75.04 K, Crystal	81.32 ± 1
76.07 K, Crystal	82.23 ± 1
77.1 K, Crystal	83.09 ± 1
79.16 K, Crystal	85.64 ± 1.1
80 K, Crystal	85.97 ± 1.1
80.19 K, Crystal	86.55 ± 1.1
80.42 K, Glass	91.54 ± 1.8
80.56 K, Crystal	86.3 ± 1.1
81.22 K, Crystal	87.3 ± 1.1
81.39 K, Glass	92.71 ± 1.8
82.25 K, Crystal	88.55 ± 1.1
82.32 K, Glass	93.45 ± 1.8
83.28 K, Crystal	89.21 ± 1.1
83.29 K, Glass	95.2 ± 1.8
83.57 K, Crystal	89.05 ± 1.1
84.28 K, Glass	95.95 ± 1.8
85 K, Crystal	90.88 ± 1.1
85.22 K, Glass	97.36 ± 1.9
86.13 K, Glass	97.2 ± 1.9
86.51 K, Crystal	92.54 ± 1.2
87.04 K, Glass	98.86 ± 1.9
87.51 K, Crystal	93.29 ± 1.2
87.98 K, Glass	100.5 ± 1.9
88.51 K, Crystal	93.95 ± 1.2
88.93 K, Glass	101.4 ± 1.9
89.5 K, Crystal	95.12 ± 1.2
89.88 K, Glass	102.9 ± 2
90 K, Crystal	95.78 ± 1.2
90.5 K, Crystal	96.03 ± 1.2
90.83 K, Glass	103.8 ± 2.4
91.51 K, Crystal	97.11 ± 1.2
91.79 K, Glass	104.5 ± 2.4
92.51 K, Crystal	98.28 ± 1.2
92.74 K, Glass	105.8 ± 2.4
93.5 K, Crystal	99.11 ± 1.2
93.68 K, Glass	107.3 ± 2.5
94.49 K, Crystal	100.2 ± 1.2
94.62 K, Glass	107.9 ± 2.5
95 K, Crystal	100.6 ± 1.2
95.48 K, Crystal	101.4 ± 1.2
95.55 K, Glass	107.9 ± 2.5
96.48 K, Crystal	102.4 ± 1.2
96.51 K, Glass	109.8 ± 2.5
97.47 K, Crystal	103.3 ± 1.2
97.47 K, Glass	111.7 ± 2.5
98.41 K, Glass	112.7 ± 2.5
98.47 K, Crystal	104.1 ± 1.2
99.31 K, Glass	114.5 ± 2.5
99.46 K, Crystal	105 ± 1.2
100 K, Crystal	105.4 ± 1.2
100.2 K, Glass	113.8 ± 2.5
100.45 K, Crystal	105.8 ± 1.2
101.1 K, Glass	115.2 ± 2.5
101.44 K, Crystal	106.9 ± 1.2
101.97 K, Glass	117.3 ± 2.6
102.44 K, Crystal	108.1 ± 1.2
102.84 K, Glass	117.8 ± 2.6
103.44 K, Crystal	108.7 ± 1.2
103.72 K, Glass	119 ± 2.6
104.44 K, Crystal	109.5 ± 1.2
104.61 K, Glass	120.2 ± 2.6
105.43 K, Crystal	110.5 ± 1.2
105.51 K, Glass	121.5 ± 2.6
106.41 K, Crystal	111.5 ± 1.3
106.42 K, Glass	123.1 ± 2.6
107.34 K, Glass	124.7 ± 2.6
107.39 K, Crystal	112.7 ± 1.3
108.29 K, Glass	126.4 ± 2.6
108.37 K, Crystal	113.4 ± 1.3
109.25 K, Glass	128.9 ± 2.7
109.35 K, Crystal	114.2 ± 1.3
110 K, Crystal	114.9 ± 1.3
110.23 K, Glass	130 ± 2.7
110.32 K, Crystal	115.2 ± 1.3
111.21 K, Glass	134 ± 2.7
111.31 K, Crystal	116 ± 1.3
112.18 K, Glass	138.9 ± 2.7
112.29 K, Crystal	117 ± 1.3
113.14 K, Glass	146.1 ± 2.7
113.28 K, Crystal	117.8 ± 1.3
114.06 K, Glass	162.4 ± 2.9
114.26 K, Crystal	118.6 ± 1.3
114.91 K, Glass	193.9 ± 3.2
115.24 K, Crystal	119.6 ± 1.3
115.82 K, Liquid	198.1 ± 0.83
116.22 K, Crystal	120.5 ± 1.3
116.8 K, Liquid	199.6 ± 0.83
117.2 K, Crystal	121.3 ± 1.3
117.8 K, Liquid	200 ± 0.83
118.17 K, Crystal	122.1 ± 1.4
118.8 K, Liquid	200.4 ± 0.83
119.15 K, Crystal	123.1 ± 1.4
119.8 K, Liquid	200.7 ± 0.83
120 K, Crystal	124 ± 1.4
120.12 K, Crystal	124.2 ± 1.4
120.79 K, Liquid	201 ± 0.83
121.09 K, Crystal	124.8 ± 1.4
121.77 K, Liquid	201.5 ± 0.83
122.76 K, Liquid	202 ± 0.83
123.02 K, Crystal	126.6 ± 1.4
123.76 K, Liquid	202.1 ± 0.83
123.99 K, Crystal	127.8 ± 1.4
124.76 K, Liquid	202.3 ± 0.83
124.96 K, Crystal	128.5 ± 1.4
125.75 K, Liquid	202.9 ± 0.83
125.92 K, Crystal	129.5 ± 1.4
126.75 K, Liquid	202.9 ± 0.83
126.91 K, Crystal	130.2 ± 1.4
127.1 K, Crystal	130.5 ± 1.4
127.74 K, Liquid	203.5 ± 0.83
127.9 K, Crystal	130.9 ± 1.4
128.73 K, Liquid	204.2 ± 0.83
128.89 K, Crystal	131.3 ± 1.4
129.13 K, Crystal	131.9 ± 1.5
129.7 K, Liquid	204.7 ± 0.83
130 K, Crystal	132.7 ± 1.5
130.13 K, Crystal	132.5 ± 1.5
130.64 K, Liquid	204.9 ± 0.83
131.57 K, Liquid	205 ± 0.83
132.12 K, Crystal	134.9 ± 1.5
132.51 K, Liquid	205.5 ± 0.83
133.1 K, Crystal	135.4 ± 1.5
133.45 K, Liquid	205.9 ± 0.83
134.08 K, Crystal	135.9 ± 1.5
134.39 K, Liquid	206.2 ± 0.83
135.33 K, Liquid	206.4 ± 0.83
136.02 K, Crystal	137.6 ± 1.5
136.26 K, Liquid	206.9 ± 0.83
136.98 K, Crystal	138.6 ± 1.5
137.2 K, Liquid	207.9 ± 0.83
137.94 K, Crystal	138.9 ± 1.5
138.89 K, Crystal	140 ± 1.5
139.84 K, Crystal	140.1 ± 1.5
140 K, Crystal	140.5 ± 1.5
